Read-outs that look alike come from different tables or passages of the source.
Experiments:
VCaP cells = assay: Cellular growth inhibition assay for VCaP cells (CellTiter-Glo, 72 hours); assay type: cell-based, human
Outline: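 Luminescent viability signal after 72 h of compound exposure gave GI50 values by four-parameter nonlinear regression. Compounds were added in 0.5% DMSO to cells plated 24 h earlier at 5000/well in DMEM containing 10% FBS.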

[1] = system: T-Rex 293 cell line SC3 cells lacking increased expression of androgen receptor protein; assay: Cellular growth inhibition assay, T-Rex 293 SC3 cells without doxycycline (CellTiter-Glo, 72 hours); assay type: cell-based; settings: T-Rex 293 cell line SC3 cells not exposed to doxycycline (lacking increased androgen receptor expression)
Outline: (§1)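 Growth inhibition is measured in an inducible AR-expressing T-Rex 293 clone, SC3, cultured with or without 10 ng/mL doxycycline in hormone-depleted medium. Test compounds are applied for 72 hours. GI50 values derive from CellTiter-Glo 2.0 signal fitted by four-parameter regression.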

[2] = system: T-Rex 293 cell line SC3 cells having increased expression of androgen receptor protein due to exposure to doxycycline; assay: Cellular growth inhibition assay, T-Rex 293 SC3 cells with doxycycline (CellTiter-Glo, 72 hours); assay type: cell-based; settings: T-Rex 293 SC3 cells with increased androgen receptor expression due to doxycycline (10 ng/mL)
Outline: as §1

SMILES | GI50 (VCaP cells; Homo sapiens, VCaP, 72 h) | GI50 ([1]; 72 h) | GI50 ([2]; 72 h) | GI50 (VCaP cells) | GI50 [1] | GI50 [2]
CCNC(=O)C[C@@H]1N=C(c2ccc(OCCCOC3CCN(c4ccc(C(=O)N[C@H]5CC[C@H](Oc6ccc(C#N)c(Cl)c6)CC5)nn4)CC3)cc2)c2c(sc(C)c2C)-n2c(C)nnc21 [I-14] | < 500 nM | < 500 nM | < 500 nM | – | – | –
Cc1sc2c(c1C)C(c1ccc(CC3CC4(CCCN(c5ccc(C(=O)N[C@H]6CC[C@H](Oc7ccc(C#N)c(Cl)c7)CC6)nn5)C4)C3)cn1)=NC(Cc1ncco1)c1nnc(C)n1-2 (stereo partly drawn) [I-770] | – | – | – | < 500 nM | < 500 nM | < 500 nM
Cc1sc2c(c1C)C(c1ccc(N3CC4(CC(Cc5ccc(C(=O)N[C@H]6CC[C@H](Oc7ccc(C#N)c(Cl)c7)CC6)nn5)C4)C3)cc1)=N[C@@H](C)c1nnc(C)n1-2 [I-604] | < 500 nM | < 500 nM | < 500 nM | – | – | –
Cc1sc2c(c1C)C(c1ccc(N3CC[C@@H](CNc4ncc(C(=O)N[C@H]5CC[C@H](Oc6ccc(C#N)c(Cl)c6)CC5)cn4)C3)cc1)=NC(Cc1ncco1)c1nnc(C)n1-2 (stereo partly drawn) [I-795] | 500 to 1500 nM | < 500 nM | < 500 nM | – | – | –
Cc1sc2c(c1C)C(c1ccc(N3CCC4(CCN(c5ccc(C(=O)N[C@H]6CC[C@H](Oc7ccc(C#N)c(Cl)c7)CC6)nn5)C4)C3)c(F)c1)=N[C@@H](C)c1nnc(C)n1-2 (stereo partly drawn) [I-745] | < 500 nM | – | – | – | < 500 nM | < 500 nM
Cc1sc2c(c1C)C(c1ccc(C#CC3CC4(C3)CN(c3ccc(C(=O)N[C@H]5CC[C@H](Oc6ccc(C#N)c(Cl)c6)CC5)nn3)C4)cn1)=NC(C)c1nnc(C)n1-2 (stereo partly drawn) [I-457] | < 500 nM | > 3000 nM | < 500 nM | – | – | –
Cc1sc2c(c1C)C(c1ccc(N3C4CCC3CC3(CCN(c5ccc(C(=O)N[C@H]6CC[C@H](Oc7ccc(C#N)c(Cl)c7)CC6)nn5)C3)C4)cc1)=N[C@@H](C)c1nnc(C)n1-2 (stereo partly drawn) [I-698] | < 500 nM | – | – | – | < 500 nM | < 500 nM
Cc1sc2c(c1C)C(c1ccc(N3CC4(CC(Cc5ccc(C(=O)N[C@H]6CC[C@H](Oc7ccc(C#N)c(Cl)c7)CC6)nn5)C4)C3)cc1)=N[C@@H](Cc1ncco1)c1nnc(C)n1-2 [I-469] | < 500 nM | > 3000 nM | < 500 nM | – | – | –
Cc1sc2c(c1C)C(c1ccc(OC3CCC4(C3)CN(c3ccc(C(=O)N[C@H]5CC[C@H](Oc6ccc(C#N)c(Cl)c6)CC5)nn3)CCO4)cc1)=N[C@@H](C)c1nnc(C)n1-2 (stereo partly drawn) [I-542] | – | – | – | 1500 to 3000 nM | < 500 nM | < 500 nM
Cc1sc2c(c1C)C(c1ccc(N3CC(C4CCN(c5ccc(C(=O)N[C@H]6CC[C@H](Oc7ccc(C#N)c(Cl)c7)CC6)nn5)CC4)C3)nc1)=NC1(CC1)c1nnc(C)n1-2 [I-503] | – | – | – | 1500 to 3000 nM | > 3000 nM | < 500 nM
Cc1sc2c(c1C)C(c1ccc(C#CC3CC4(C3)CN(c3ccc(C(=O)N[C@H]5CC[C@H](Oc6ccc(C#N)c(Cl)c6)CC5)nn3)C4)cc1)=NC(C(F)(F)F)c1nnc(C)n1-2 (stereo partly drawn) [I-723] | < 500 nM | – | – | – | > 3000 nM | > 3000 nM
CC1=NN=C2C1c1sc(C)c(C)c1C(c1ccc(N3C[C@@H]4CN(c5ccc(C(=O)N[C@H]6CC[C@H](Oc7ccc(C#N)c(Cl)c7)CC6)nn5)C[C@@H]4C3)cc1)=NC21CC1 (stereo partly drawn) [I-505] | < 500 nM | > 3000 nM | < 500 nM | – | – | –
Cc1sc2c(c1C)C(c1ccccc1CC1CC3(CCCN(c4ccc(C(=O)N[C@H]5CC[C@H](Oc6ccc(C#N)c(Cl)c6)CC5)nn4)C3)C1)=N[C@@H](C)c1nnc(C)n1-2 (stereo partly drawn) [I-754] | > 3000 nM | > 3000 nM | > 3000 nM | – | – | –
Cc1sc2c(c1C)C(c1ccc(N3CCC4CN(c5ccc(C(=O)N[C@H]6CC[C@H](Oc7ccc(C#N)c(Cl)c7)CC6)nn5)CCC4C3)cc1)=NC1(CC1)c1nnc(C)n1-2 (stereo partly drawn) [I-563] | – | < 500 nM | – | 500 to 1500 nM | – | < 500 nM
CCNC(=O)C[C@@H]1N=C(c2ccc(N3CC(N(C(C)C)C4CN(c5ccc(C(=O)N[C@H]6CC[C@H](Oc7ccc(C#N)c(Cl)c7)CC6)nn5)C4)C3)cc2)c2c(sc(C)c2C)-n2c(C)nnc21 [I-64] | < 500 nM | 500 to 1500 nM | < 500 nM | – | – | –
Cc1sc2c(c1C)C(c1ccc(C3CCC4(CCN(c5ccc(C(=O)N[C@H]6CC[C@H](Oc7ccc(C#N)c(Cl)c7)CC6)nn5)CC4)C3)cc1)=NC1(CC1)c1nnc(C)n1-2 (stereo partly drawn) [I-520] | – | – | – | < 500 nM | > 3000 nM | < 500 nM
Cc1sc2c(c1C)C(c1ccc(N3CCC4(CC3)CCN(c3ccc(C(=O)N[C@H]5CC[C@H](Oc6ccc(C#N)c(Cl)c6)CC5)nn3)C4)nc1)=NCc1nnc(C)n1-2 [I-449] | > 3000 nM | > 3000 nM | < 500 nM | – | – | –
Cc1sc2c(c1C)C(c1ccc(C3CCC4(CCCN(c5ccc(C(=O)N[C@H]6CC[C@H](Oc7ccc(C#N)c(Cl)c7)CC6)nn5)C4)CC3)cc1)=N[C@@H](C)c1nnc(C)n1-2 (stereo partly drawn) [I-674] | – | – | – | < 500 nM | > 3000 nM | < 500 nM

— US20260109707A1, “HETEROBIFUNCTIONAL COMPOUNDS AND METHODS OF TREATING DISEASE” (Halda Therapeutics OpCo. Inc., priority 2022, published 2026)
